Test [1] relates to HepG2. Briefly: Antiproliferative activity against human HepG2 cells assessed as reduction in cell growth after 72 hrs by MTT assay. Type of test: functional, cell-based. The conditions noted are these: HepG2, 72 h. For orientation: Formazan colour is commonly taken as a measure of viable cells.
A further test concerns MCF7. The test can be described thus: Antiproliferative activity against human MCF7 cells assessed as reduction in cell growth after 72 hrs by MTT assay. It is filed as functional, cell-based. The conditions noted are these: MCF7, 72 h.
For test [2], the species on record is Homo sapiens. The test can be described thus: Inhibition of TrxR (unknown origin) at 5 uM by […]-reagent based assay relative to control.
Test [3] in a line: Inhibition of TrxR (unknown origin) by […]-reagent based assay. The arrangement: species or system Homo sapiens.
For test [4], the species on record is Homo sapiens. Briefly: Inhibition of TrxR (unknown origin) at 8 uM by […]-reagent based assay relative to control.
In test [5] the test system is HepG2. Briefly: Inhibition of TrxR in human HepG2 cells assessed as decrease in green fluorescence at 12.5 to 50 uM incubated for 24 hrs by immunofluorescence assay. Type of test: cell-based. The settings on record: dose 12.5-50 µM.
In test [6] the test system is HepG2. Briefly: Inhibition of TrxR in human HepG2 cells incubated for 24 hrs by immunofluorescence assay. It is filed as cell-based. The settings on record: dose 12.5-50 µM.
The test system of test [7] is HepG2. Briefly: Induction of intracellular ROS generation in human HepG2 cells assessed as increase in green fluorescence at 6.25 to 12.5 uM incubated for 6 hrs by DCFH-DA probe based fluorescence microscopic analysis. It is filed as functional, cell-based. The settings on record: dose 6.25-12.5 µM.
In test [8] the test system is HepG2. Briefly: Induction of intracellular ROS generation in human HepG2 cells assessed as increase in red fluorescence at 6.25 to 12.5 uM incubated for 6 hrs by DHE probe based fluorescence microscopic analysis. It is filed as functional, cell-based. The settings on record: dose 6.25-12.5 µM.
Test [9] relates to HepG2. Briefly: Induction of intracellular ROS generation in human HepG2 cells at 6.25 uM incubated for 3 to 12 hrs by DCFH-DA probe based fluorescence microscopic analysis. Type of test: functional, cell-based. The settings on record: time 3-12 hrs.
Test [10] relates to HepG2. The test can be described thus: Induction of apoptosis in human HepG2 cells assessed as viable cells at 12.5 uM incubated for 24 hrs by Annexin V/PI staining based flow cytometry analysis (reference value: 94.9%). Type of test: functional. The conditions noted are these: read-out: Activity. (In general: In flow cytometry, cells or beads pass a laser one at a time.)
Test [11] relates to HepG2. The test can be described thus: Induction of apoptosis in human HepG2 cells assessed as viable cells at 25 uM incubated for 24 hrs by Annexin V/PI staining based flow cytometry analysis (reference value: 94.9%). Type of test: functional. The settings on record: read-out: Activity.
Test [12] deals with HepG2. The test can be described thus: Induction of apoptosis in human HepG2 cells assessed as viable cells at 50 uM incubated for 24 hrs by Annexin V/PI staining based flow cytometry analysis (reference value: 94.9%). The settings on record: read-out: Activity. Type of test: functional.
Test [13] deals with HepG2. Briefly: Induction of apoptosis in human HepG2 cells assessed as early apoptotic cells at 12.5 uM incubated for 24 hrs by Annexin V/PI staining based flow cytometry analysis (reference value: 3.64%). Type of test: functional.
Test [14] has as its system HepG2. The test can be described thus: Induction of apoptosis in human HepG2 cells assessed as early apoptotic cells at 25 uM incubated for 24 hrs by Annexin V/PI staining based flow cytometry analysis (reference value: 3.64%). Type of test: functional.
Test [15] concerns HepG2. The test can be described thus: Induction of apoptosis in human HepG2 cells assessed as early apoptotic cells at 50 uM incubated for 24 hrs by Annexin V/PI staining based flow cytometry analysis (reference value: 3.64%). It is filed as functional.
For test [16], the system named is HepG2. Briefly: Induction of apoptosis in human HepG2 cells assessed as late apoptotic cells at 12.5 uM incubated for 24 hrs by Annexin V/PI staining based flow cytometry analysis (reference value: 1.30%). Type of test: functional.
Test [17] has as its system HepG2. The test can be described thus: Induction of apoptosis in human HepG2 cells assessed as late apoptotic cells at 25 uM incubated for 24 hrs by Annexin V/PI staining based flow cytometry analysis (reference value: 1.30%). It is filed as functional.
Test [18] relates to HepG2. The test can be described thus: Induction of apoptosis in human HepG2 cells assessed as late apoptotic cells at 50 uM incubated for 24 hrs by Annexin V/PI staining based flow cytometry analysis (reference value: 1.30%). Type of test: functional.
Test [19] relates to HepG2. The test can be described thus: Induction of apoptosis in human HepG2 cells assessed as necrotic cells at 12.5 uM incubated for 24 hrs by Annexin V/PI staining based flow cytometry analysis (reference value: 0.21%). It is filed as functional.
In test [20] the test system is HepG2. The test can be described thus: Induction of apoptosis in human HepG2 cells assessed as necrotic cells at 25 uM incubated for 24 hrs by Annexin V/PI staining based flow cytometry analysis (reference value: 0.21%). Type of test: functional.
Test [21] concerns HepG2. The test can be described thus: Induction of apoptosis in human HepG2 cells assessed as necrotic cells at 50 uM incubated for 24 hrs by Annexin V/PI staining based flow cytometry analysis (reference value: 0.21%). It is filed as functional.
In test [22] the test system is HepG2. The test can be described thus: Induction of apoptosis in human HepG2 cells assessed as late apoptotic cells incubated for 24 hrs by Annexin V/PI staining based flow cytometry analysis. The settings on record: dose 12.5-50 µM. Type of test: functional, cell-based.
Test [23] has as its system HepG2. The test can be described thus: Induction of apoptosis in human HepG2 cells assessed as early apoptotic cells incubated for 24 hrs by Annexin V/PI staining based flow cytometry analysis. It is filed as functional, cell-based. The settings on record: dose 12.5-50 µM.
Test [24] is described as follows: Inhibition of TrxR in human SGC-7901 cells. It is filed as cell-based.
Test [25] can be described thus: Inhibition of TrxR (unknown origin). Also on record: species or system Homo sapiens.

The values below come from ChEMBL document CHEMBL6153054, “Synthesis and discovery of simplified pleurotin analogs bearing tricyclic core as novel thioredoxin reductase inhibitors” (Eur J Med Chem, 2025).

Activity calls are given as the source filed them. No cut-off for these calls is given here.

As a reminder, the IC50 is the concentration needed to halve the response being measured. As a reminder, the inhibition is the relative decrease from the control value, in per cent. For the molecule `COc1ccc([C@@]2(O)CCC[C@@]3(C)CC4=C(C[C@H]32)C(=O)C=CC4=O)cc1`, the results for the IC50 in the test with HepG2 [1] and with MCF7 were > 100 µM and 17.4 µM, respectively. Also, the inhibition in the test filed under Homo sapiens [2] was 9.8%.
Regarding `C[C@@]12CCC[C@](O)(c3ccccn3)[C@@H]1CC1=C(C2)C(=O)C=CC1=O`, the 50% inhibitory concentration (IC50) in the test on HepG2 [1] was 45.3 µM; in the test with MCF7 it was 28.8 µM. In the test filed under Homo sapiens [2], the inhibition turned out to be 23.5%.
Taken in the same sequence, the figures for `C[C@@]12CCC[C@](O)(c3ccc(C(F)(F)F)cc3)[C@@H]1CC1=C(C2)C(=O)C=CC1=O` were 69.5 µM, 13.6 µM and 15.7%.
Consider `CCc1ccc([C@@]2(O)CCC[C@@]3(C)CC4=C(C[C@H]32)C(=O)C=CC4=O)cc1`, for which the IC50 with HepG2 [1] is 46.5 µM; with MCF7, 19.6 µM. For the same molecule, the inhibition in the test filed under Homo sapiens [2] was determined as 19.6%.
In the case of `C[C@@]12CCC[C@](O)(c3ccc(C#N)cc3)[C@@H]1CC1=C(C2)C(=O)C=CC1=O`, the IC50 in the test on HepG2 [1] came to 19.4 µM; in the test with MCF7, 28.2 µM; in test [3] it was 3.5 µM. Besides, the inhibition in the test filed under Homo sapiens [2] was 71.9%; in the test filed under Homo sapiens [4] it was 100%; in the test on HepG2 [6] it was “Dose-dependent-effect”. Further, in the test with HepG2 [5], the inhibition entry is “Active”. The outcome in the test on HepG2 [7], with HepG2 [8] and with HepG2 [9] was Active. Also, the viability at 12.5 µM in the test with HepG2 [10] worked out at 92.2%. Also, in the test on HepG2 [11], the viability at 25 µM is 81.3%. Moreover, the viability at 50 µM with HepG2 [12] was determined as 54%. For the same molecule, the Activity with HepG2 [13] is 5.54%; in the test on HepG2 [14], 13.9%; in the test with HepG2 [15] it was 22.7%; with HepG2 [16], 1.82%; with HepG2 [17], 3.39%; in the test with HepG2 [18] it was 12.6%. Also, the Activity in the test on HepG2 [19] is 0.3%; in the test with HepG2 [20] it was 1.39%; with HepG2 [21], 10.7%; in the test on HepG2 [22], “Dose-dependent-effect”; with HepG2 [23], “Dose-dependent-effect”.
For `C[C@@]12CCCC(=O)[C@@H]1[C@H](O)C1=C(C2)C(=O)C=CC1=O`, the results for the IC50 in the test with HepG2 [1] and in the test with MCF7 were 48.5 µM and 32.4 µM, respectively. Moreover, in the test filed under Homo sapiens [2], the inhibition was determined as 60.4%.
Taken in the same sequence, the figures for `C=C1CCC[C@@]2(C)CC3=C(C[C@@H]12)C(=O)C=CC3=O` [CORDIACHROME B] were > 100 µM, 59.3 µM and 19.6%.
Take `Cc1ccc([C@@]2(O)CCC[C@@]3(C)CC4=C(C[C@H]32)C(=O)C=CC4=O)cc1`: the IC50 in the test with HepG2 [1] was > 100 µM; with MCF7 it was 36.9 µM. Besides, in the test filed under Homo sapiens [2], the inhibition was 11.8%.
Take `COc1ccccc1/C=C/C(=O)/C=C/c1ccccc1OC`: the IC50 in [24] was ~50 µM.
On to `C[C@@]12CCC[C@@H](CO)[C@@H]1CC1=C(C2)C(=O)C=CC1=O`, for which the 50% inhibitory concentration (IC50) with HepG2 [1] came to 71.7 µM; with MCF7 it was 43.7 µM. The molecule also returned an inhibition in the test filed under Homo sapiens [2] of 13.7%.
Taken in the same sequence, the figures for `C[C@@]12CCC[C@@H](O)[C@@H]1CC1=C(C2)C(=O)C=CC1=O` were 36.6 µM, 15.6 µM and 34.9%.
For `C[C@@]12CCC[C@](O)(c3ccccc3)[C@@H]1CC1=C(C2)C(=O)C=CC1=O`, in that order: 34 µM, 24.2 µM and 19.6%.
For `C[C@@]12CCC[C@](O)(c3ccoc3)[C@@H]1CC1=C(C2)C(=O)C=CC1=O`, the IC50 with HepG2 [1] and in the test with MCF7 was > 100 µM throughout.
Consider `C[C@H]1CO[C@H]2C3=C(C(=O)C=CC3=O)[C@@H]3OC(=O)[C@H]4CC[C@@H]5[C@H]1CC[C@@]52[C@@H]43`, for which the IC50 in the test with HepG2 [1] was 55 µM; in the test with MCF7, > 100 µM; in [25], 0.17 µM.
With `C=CC(=O)O[C@@H]1CCC[C@@]2(C)CC3=C(C[C@@H]12)C(=O)C=CC3=O`, the IC50 in the test on HepG2 [1] came to 59.6 µM; in the test on MCF7, 16.4 µM. Also, in the test filed under Homo sapiens [2], the inhibition stood at 19.7%.
In the case of `C[C@@]12CCC[C@@H](C(=O)O)[C@@H]1CC1=C(C2)C(=O)C=CC1=O`, the figures for the IC50 with HepG2 [1] and in the test with MCF7 were 27.8 µM and 43.3 µM, respectively. The molecule also yielded an inhibition in the test listed under Homo sapiens [2] of 21.6%.
On to `C=C1C(=O)O[C@H]2[C@H]1CCC(C)=C1CC[C@@](C)(O)[C@@H]12` [MICHELIOLIDE], for which the IC50 in the test with HepG2 [1] stood at 10.9 µM; in the test on MCF7, 23.4 µM; in [3], 6.23 µM; in [25], 6.23 µM. Further, the inhibition in the test filed under Homo sapiens [2] amounted to 34.2%.
Regarding `C=CC(=O)O[C@@H]1C2=C(C[C@]3(C)CCCC(=O)[C@H]13)C(=O)C=CC2=O`, the IC50 in the test with HepG2 [1] and with MCF7 was > 100 µM throughout.
Turning to `C[C@@]12CCCC(=O)[C@@H]1CC1=C(C2)C(=O)C=CC1=O`, the IC50 with HepG2 [1] is 62.6 µM; in the test with MCF7, 30.7 µM. The inhibition in the test filed under Homo sapiens [2] is 18.5%.
